ChEMBL document CHEMBL4680347, “Discovery of novel 1,3,5-triazine derivatives as potent inhibitor of cervical cancer via dual inhibition of PI3K/mTOR” (Bioorg Med Chem, 2021)
The source made the active and inactive calls. The rule behind the calls is not given here.

What was measured:
[1] = biological target: Serine/threonine-protein kinase mTOR (Homo sapiens, UniProt P42345); test: Inhibition of mTOR (unknown origin) measured after 45 mins by LANCE Ultra assay
[2] = biological target: Phosphatidylinositol 4,5-bisphosphate 3-kinase catalytic subunit alpha isoform (Homo sapiens, UniProt P42336); test: Inhibition of PI3Kalpha (unknown origin) measured after 1 hr by ADP-glo plus luminescence assay
HeLa [3] = test: Induction of cell cycle arrest in human HeLa cells assessed as accumulation at S phase at 8 uM after 24 hrs by RNase A/PI-staining based flow cytometric analysis (reference value: 17.17%); type: functional
Mus musculus [4] = test: Reduction in p-mTOR levels in BALB/c mouse tumor xenografted with human HeLa cells at 5 to 15 mg/kg, po by Western blot analysis; type: functional, organism-based; details: Neoplasm, dose 5-15 mg/kg
HepG2 = test: Anticancer activity against human HepG2 cells assessed as inhibition of cell proliferation measured after 48 hrs by MTT assay; type: functional, cell-based; details: HepG2, 48 h
HeLa [5] = test: Inhibition of cell invasion in human HeLa cells incubated for 24 hrs by crystal violet staining based transwell assay; type: functional; details: dose 4-12 µM
HeLa [6] = test: Inhibition of colony formation in human HeLa cells measured after 24 hrs by crystal violet staining based colony formation assay; type: functional, cell-based; details: dose 4-12 µM
MDA-MB-231 = test: Anticancer activity against human […] cells assessed as inhibition of cell proliferation measured after 48 hrs by MTT assay; type: functional, cell-based; details: MDA-MB-231, 48 h
HeLa [7] = test: Induction of apoptosis in human HeLa cells assessed as increase in Bcl-2 level upto 12 uM by Western blot analysis; type: functional, cell-based; details: dose microM <=12
HeLa [8] = test: Antiproliferative activity against human HeLa cells assessed as reduction in cell viability measured upto 12 uM by MTT assay; type: functional, cell-based; details: dose microM <=12, time 24-72 hrs, TDE = time-dependent effect
HeLa [9] = test: Induction of apoptosis in human HeLa cells assessed as early apoptotic cells at 4 uM measured after 24 hrs by Annexin-V/FITC and propidium iodide staining based flow cytometry (reference value: 1.60%); type: functional
HeLa [10] = test: Induction of apoptosis in human HeLa cells assessed as late apoptotic cells at 4 uM measured after 24 hrs by Annexin-V/FITC and propidium iodide staining based flow cytometry (reference value: 3.4%); type: functional
[11] = biological target: T1, Phosphatidylinositol 4,5-bisphosphate 3-kinase catalytic subunit delta isoform (Homo sapiens, UniProt O00329); test: Inhibition of PI3Kdelta (unknown origin) measured after 1 hr by ADP-glo plus luminescence assay
T1 sequence (O00329 whole entry): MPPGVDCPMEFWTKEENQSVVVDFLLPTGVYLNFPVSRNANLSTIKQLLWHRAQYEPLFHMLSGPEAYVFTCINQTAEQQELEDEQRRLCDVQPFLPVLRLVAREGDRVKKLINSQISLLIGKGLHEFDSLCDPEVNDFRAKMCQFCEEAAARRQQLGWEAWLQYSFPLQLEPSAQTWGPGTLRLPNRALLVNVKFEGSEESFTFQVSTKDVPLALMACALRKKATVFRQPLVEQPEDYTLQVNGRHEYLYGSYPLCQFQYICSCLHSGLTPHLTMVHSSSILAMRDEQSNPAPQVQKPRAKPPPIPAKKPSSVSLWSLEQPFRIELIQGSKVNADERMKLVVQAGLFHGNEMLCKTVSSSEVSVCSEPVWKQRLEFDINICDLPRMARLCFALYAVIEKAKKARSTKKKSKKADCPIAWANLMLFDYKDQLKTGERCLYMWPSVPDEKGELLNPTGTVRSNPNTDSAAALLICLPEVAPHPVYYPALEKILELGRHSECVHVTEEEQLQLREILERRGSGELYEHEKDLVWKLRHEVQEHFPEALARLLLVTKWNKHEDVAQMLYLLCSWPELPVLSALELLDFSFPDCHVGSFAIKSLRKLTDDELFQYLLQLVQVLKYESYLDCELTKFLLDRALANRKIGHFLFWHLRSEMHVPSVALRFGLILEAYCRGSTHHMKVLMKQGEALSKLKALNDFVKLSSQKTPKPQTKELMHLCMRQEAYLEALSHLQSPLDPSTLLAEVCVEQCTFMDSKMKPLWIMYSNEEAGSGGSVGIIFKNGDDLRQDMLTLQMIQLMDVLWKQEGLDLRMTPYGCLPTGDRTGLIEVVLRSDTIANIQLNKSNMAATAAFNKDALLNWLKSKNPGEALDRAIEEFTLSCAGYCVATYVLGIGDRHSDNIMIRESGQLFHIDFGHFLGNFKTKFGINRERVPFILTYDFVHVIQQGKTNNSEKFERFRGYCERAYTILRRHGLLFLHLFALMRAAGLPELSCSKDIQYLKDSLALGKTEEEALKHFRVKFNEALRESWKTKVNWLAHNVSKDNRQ

HeLa [12] = test: Antiproliferative activity against human HeLa cells assessed as reduction in cell viability incubated for 24 to 72 hr by MTT assay; type: functional, cell-based; details: dose microM <=12, time 24-72 hrs
HeLa [13] = test: Induction of apoptosis in human HeLa cells assessed as late apoptotic cells at 8 uM measured after 24 hrs by Annexin-V/FITC and propidium iodide staining based flow cytometry (reference value: 3.4%); type: functional
HeLa [14] = test: Antitumor activity against human HeLa cells xenografted in orally dosed BALB/c mouse assessed as reduction in tumor volume measured for 24 days; type: functional, organism-based; details: dose 5-15 mg/kg, time 24.0 day
HeLa [15] = test: Induction of cell cycle arrest in human HeLa cells assessed as accumulation at S phase at 12 uM after 24 hrs by RNase A/PI-staining based flow cytometric analysis (reference value: 17.17%); type: functional
[16] = biological target: Phosphatidylinositol 4,5-bisphosphate 3-kinase catalytic subunit gamma isoform (Homo sapiens, UniProt P48736); test: Inhibition of PI3Kgamma (unknown origin) measured after 1 hr by ADP-glo plus luminescence assay
HeLa [17] = test: Induction of cell cycle arrest in human HeLa cells assessed as accumulation at G2 phase at 12 uM after 24 hrs by RNase A/PI-staining based flow cytometric analysis (reference value: 30.62%); type: functional
HeLa [18] = test: Induction of cell cycle arrest in human HeLa cells assessed as accumulation at S phase at 4 uM after 24 hrs by RNase A/PI-staining based flow cytometric analysis (reference value: 17.17%); type: functional
HeLa [19] = test: Antitumor activity against human HeLa cells xenografted in orally dosed BALB/c mouse assessed as reduction in tumor weight measured for 24 days; type: functional, organism-based; details: dose 5-15 mg/kg, time 24.0 day
[20] = biological target: Phosphatidylinositol 4,5-bisphosphate 3-kinase catalytic subunit beta isoform (Homo sapiens, UniProt P42338); test: Inhibition of PI3Kbeta (unknown origin) measured after 1 hr by ADP-glo plus luminescence assay
HeLa [21] = test: Inhibition of PI3K/AKT pathway in human HeLa cells assessed as reduction phosphorylated PI3K level upto 12 uM by Western blot analysis; type: cell-based; details: dose microM <=12
HeLa [22] = test: Induction of cell cycle arrest in human HeLa cells assessed as accumulation at G1 phase at 8 uM after 24 hrs by RNase A/PI-staining based flow cytometric analysis (reference value: 52.21%); type: functional
HeLa [23] = test: Induction of apoptosis in human HeLa cells assessed as late apoptotic cells at 12 uM measured after 24 hrs by Annexin-V/FITC and propidium iodide staining based flow cytometry (reference value: 3.4%); type: functional
HeLa [24] = test: Anticancer activity against human HeLa cells assessed as inhibition of cell proliferation measured after 48 hrs by MTT assay; type: functional, cell-based
HeLa [25] = test: Induction of apoptosis in human HeLa cells assessed as early apoptotic cells at 12 uM measured after 24 hrs by Annexin-V/FITC and propidium iodide staining based flow cytometry (reference value: 1.60%); type: functional
Mus musculus [26] = test: Reduction in p-PI3K levels in BALB/c mouse tumor xenografted with human HeLa cells at 5 to 15 mg/kg, po by Western blot analysis; type: functional, organism-based; details: Neoplasm, dose 5-15 mg/kg
HeLa [27] = test: Induction of cell cycle arrest in human HeLa cells assessed as accumulation at G2 phase at 4 uM after 24 hrs by RNase A/PI-staining based flow cytometric analysis (reference value: 30.62%); type: functional
HeLa [28] = test: Induction of cell cycle arrest in human HeLa cells assessed as accumulation at G1 phase at 12 uM after 24 hrs by RNase A/PI-staining based flow cytometric analysis (reference value: 52.21%); type: functional
HeLa [29] = test: Induction of cell cycle arrest in human HeLa cells assessed as accumulation at G1 phase at 4 uM after 24 hrs by RNase A/PI-staining based flow cytometric analysis (reference value: 52.21%); type: functional
HeLa [30] = test: Induction of apoptosis in human HeLa cells assessed as reduction in BAX level upto 12 uM by Western blot analysis; type: functional, cell-based; details: dose microM <=12
HeLa [31] = test: Inhibition of cell migration in human HeLa cells incubated for 72 hrs by wound healing assay; type: functional, cell-based; details: dose 4-12 µM
HeLa [32] = test: Induction of apoptosis in human HeLa cells at 4 to 12 uM incubated for 48 hrs by Hoechst 33342 staining based fluorescence microscopy; type: functional, cell-based; details: dose 4-12 µM
HeLa [33] = test: Induction of apoptosis in human HeLa cells assessed as early apoptotic cells at 8 uM measured after 24 hrs by Annexin-V/FITC and propidium iodide staining based flow cytometry (reference value: 1.60%); type: functional
MCF7 = test: Anticancer activity against human MCF-7 cells assessed as inhibition of cell proliferation measured after 48 hrs by MTT assay; type: functional, cell-based; details: MCF7, 48 h
Mus musculus [34] = test: Reduction in p-AKT levels in BALB/c mouse tumor xenografted with human HeLa cells at 5 to 15 mg/kg, po by Western blot analysis; type: functional, organism-based; details: Neoplasm, dose 5-15 mg/kg
HeLa [35] = test: Inhibition of PI3K/AKT pathway in human HeLa cells assessed as reduction phosphorylated Akt level upto 12 uM by Western blot analysis; type: cell-based; details: dose microM <=12
HeLa [36] = test: Induction of cell cycle arrest in human HeLa cells assessed as accumulation at G2 phase at 8 uM after 24 hrs by RNase A/PI-staining based flow cytometric analysis (reference value: 30.62%); type: functional

Phosphatidylinositol 4,5-bisphosphate 3-kinase catalytic subunit alpha isoform, sequence (P42336 whole entry, canonical isoform): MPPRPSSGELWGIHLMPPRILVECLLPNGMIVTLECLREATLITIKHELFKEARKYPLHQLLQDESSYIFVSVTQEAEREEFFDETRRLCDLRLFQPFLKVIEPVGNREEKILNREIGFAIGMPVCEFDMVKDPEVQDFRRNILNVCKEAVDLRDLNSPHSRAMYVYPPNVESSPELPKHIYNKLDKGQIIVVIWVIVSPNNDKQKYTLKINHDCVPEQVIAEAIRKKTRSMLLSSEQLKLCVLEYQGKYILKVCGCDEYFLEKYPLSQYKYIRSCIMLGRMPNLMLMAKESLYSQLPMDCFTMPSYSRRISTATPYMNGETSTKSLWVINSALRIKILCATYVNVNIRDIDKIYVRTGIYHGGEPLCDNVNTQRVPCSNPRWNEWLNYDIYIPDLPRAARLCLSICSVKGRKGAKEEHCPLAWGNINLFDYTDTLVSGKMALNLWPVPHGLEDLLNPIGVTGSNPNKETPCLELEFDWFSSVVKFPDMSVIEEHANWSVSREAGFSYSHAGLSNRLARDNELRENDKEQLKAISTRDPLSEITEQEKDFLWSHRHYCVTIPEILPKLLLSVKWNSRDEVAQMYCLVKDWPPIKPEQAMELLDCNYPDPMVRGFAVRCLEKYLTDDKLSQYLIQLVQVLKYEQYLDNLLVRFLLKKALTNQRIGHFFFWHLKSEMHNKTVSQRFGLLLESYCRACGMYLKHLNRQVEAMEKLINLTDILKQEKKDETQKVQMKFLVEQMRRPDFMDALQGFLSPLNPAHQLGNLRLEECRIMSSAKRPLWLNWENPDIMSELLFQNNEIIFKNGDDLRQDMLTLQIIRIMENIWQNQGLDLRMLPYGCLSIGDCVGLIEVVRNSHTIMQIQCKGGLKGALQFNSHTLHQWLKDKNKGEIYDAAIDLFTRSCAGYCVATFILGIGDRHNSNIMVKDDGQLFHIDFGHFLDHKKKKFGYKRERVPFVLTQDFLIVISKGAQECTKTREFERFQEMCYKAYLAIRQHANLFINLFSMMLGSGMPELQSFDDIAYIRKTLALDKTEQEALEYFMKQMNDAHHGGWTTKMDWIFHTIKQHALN
Phosphatidylinositol 4,5-bisphosphate 3-kinase catalytic subunit beta isoform, sequence (P42338 whole entry, canonical isoform): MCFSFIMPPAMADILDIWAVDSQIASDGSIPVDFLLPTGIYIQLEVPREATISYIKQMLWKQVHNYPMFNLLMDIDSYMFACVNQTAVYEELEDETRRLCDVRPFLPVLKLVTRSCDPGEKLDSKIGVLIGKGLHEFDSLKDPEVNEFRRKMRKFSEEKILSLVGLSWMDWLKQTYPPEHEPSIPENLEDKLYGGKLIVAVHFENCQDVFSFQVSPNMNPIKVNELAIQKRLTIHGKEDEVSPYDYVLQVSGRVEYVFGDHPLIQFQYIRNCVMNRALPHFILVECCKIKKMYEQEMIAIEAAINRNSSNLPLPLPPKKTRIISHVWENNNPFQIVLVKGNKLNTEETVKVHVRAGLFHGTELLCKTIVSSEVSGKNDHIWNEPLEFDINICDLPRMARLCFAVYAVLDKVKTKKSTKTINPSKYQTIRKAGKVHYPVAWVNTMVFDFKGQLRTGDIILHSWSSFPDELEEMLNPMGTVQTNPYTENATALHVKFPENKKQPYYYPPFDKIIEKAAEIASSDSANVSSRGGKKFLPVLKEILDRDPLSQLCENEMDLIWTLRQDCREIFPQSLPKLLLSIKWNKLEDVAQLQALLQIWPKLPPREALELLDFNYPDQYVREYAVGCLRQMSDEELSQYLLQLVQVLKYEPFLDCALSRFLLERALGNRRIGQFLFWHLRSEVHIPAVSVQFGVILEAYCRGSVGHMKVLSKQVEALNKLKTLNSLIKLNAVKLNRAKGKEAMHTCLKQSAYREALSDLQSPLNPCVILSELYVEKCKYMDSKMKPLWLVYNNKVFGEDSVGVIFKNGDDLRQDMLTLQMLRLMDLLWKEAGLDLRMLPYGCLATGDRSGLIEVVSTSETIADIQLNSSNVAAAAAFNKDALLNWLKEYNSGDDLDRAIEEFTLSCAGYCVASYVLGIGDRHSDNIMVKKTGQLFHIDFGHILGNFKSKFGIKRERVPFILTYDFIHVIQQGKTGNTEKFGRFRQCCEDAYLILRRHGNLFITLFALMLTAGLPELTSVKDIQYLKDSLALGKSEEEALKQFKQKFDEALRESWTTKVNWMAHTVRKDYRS
Phosphatidylinositol 4,5-bisphosphate 3-kinase catalytic subunit gamma isoform, sequence (P48736 whole entry, canonical isoform): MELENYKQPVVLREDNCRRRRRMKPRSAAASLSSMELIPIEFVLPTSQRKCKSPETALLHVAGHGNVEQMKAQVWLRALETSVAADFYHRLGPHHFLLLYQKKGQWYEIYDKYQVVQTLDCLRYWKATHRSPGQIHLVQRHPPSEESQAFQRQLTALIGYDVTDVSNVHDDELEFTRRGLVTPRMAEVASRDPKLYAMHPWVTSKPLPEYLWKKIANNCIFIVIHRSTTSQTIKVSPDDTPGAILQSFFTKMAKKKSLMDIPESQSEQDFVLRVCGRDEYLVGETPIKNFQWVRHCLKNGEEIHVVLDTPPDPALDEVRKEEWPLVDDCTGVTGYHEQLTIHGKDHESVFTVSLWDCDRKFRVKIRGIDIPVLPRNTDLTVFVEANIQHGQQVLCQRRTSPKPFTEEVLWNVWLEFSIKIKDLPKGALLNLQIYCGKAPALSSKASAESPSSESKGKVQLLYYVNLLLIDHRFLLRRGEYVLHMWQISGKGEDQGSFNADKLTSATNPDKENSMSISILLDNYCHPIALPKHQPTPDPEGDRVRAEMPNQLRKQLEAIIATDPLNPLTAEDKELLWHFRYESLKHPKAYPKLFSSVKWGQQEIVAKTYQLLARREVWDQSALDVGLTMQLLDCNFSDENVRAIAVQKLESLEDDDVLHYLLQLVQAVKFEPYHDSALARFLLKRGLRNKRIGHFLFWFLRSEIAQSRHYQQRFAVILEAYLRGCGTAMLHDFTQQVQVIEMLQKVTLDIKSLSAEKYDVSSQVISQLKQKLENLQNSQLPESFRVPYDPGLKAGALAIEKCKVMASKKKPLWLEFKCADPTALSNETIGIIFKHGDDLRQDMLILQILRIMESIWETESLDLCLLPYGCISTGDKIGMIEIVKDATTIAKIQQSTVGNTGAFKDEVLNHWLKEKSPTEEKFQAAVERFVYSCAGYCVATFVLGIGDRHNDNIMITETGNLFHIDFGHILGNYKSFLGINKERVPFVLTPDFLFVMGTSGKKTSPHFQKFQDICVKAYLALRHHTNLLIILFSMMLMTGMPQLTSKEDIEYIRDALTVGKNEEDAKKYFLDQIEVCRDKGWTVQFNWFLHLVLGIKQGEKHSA

`Cc1ccccc1S(=O)(=O)N1CCN(c2nc(NCCN3CCOCC3)nc(N3CCOCC3)n2)CC1` showed an IC50 [1] of 32.3 nM and an IC50 [2] of 32 nM.

In the case of `O=S(=O)(c1cccc(F)c1)N1CCN(c2nc(NCCN3CCOCC3)nc(N3CCOCC3)n2)CC1`, the IC50 [1] is reported as 93.7 nM and the IC50 [2] is reported as 110 nM.

For `O=S(=O)(c1ccccc1O)N1CCN(c2nc(NCCN3CCOCC3)nc(N3CCOCC3)n2)CC1`, the IC50 [1] was 32.5 nM and the IC50 [2] was 21.3 nM.

`O=S(=O)(c1ccc(O)cc1)N1CCN(c2nc(NCCN3CCOCC3)nc(N3CCOCC3)n2)CC1` was tested, and the Activity (HeLa [3]) was 19.52%, the inhibition (Mus musculus [4]) was “Active” and the IC50 (HepG2) was 12200 nM. The Activity (HeLa [5]) was “Dose-dependent effect”, the Activity (HeLa [6]) was “Dose-dependent effect” and the IC50 (MDA-MB-231) was 15800 nM. For the same compound, the Activity (HeLa [7]) was “Active”, the Activity (HeLa [8]) was “Tde” and the Activity (HeLa [9]) was 2.71%. For the same compound, the Activity (HeLa [10]) was 5.07%, the IC50 [11] was 35.3 nM and the IC50 [1] was 8.45 nM. The Activity (HeLa [12]) was “Dose-dependent effect”, the Activity (HeLa [13]) was 16.94% and the Activity (HeLa [14]) was “Dose-dependent effect”. The Activity (HeLa [15]) was 10.65%, the IC50 [16] was 24.6 nM and the Activity (HeLa [17]) was 14.32%. The Activity (HeLa [18]) was 20.44%, the Activity (HeLa [19]) was “Dose-dependent effect” and the IC50 [20] was 12.3 nM. For the same compound, the inhibition (HeLa [21]) was “Dose-dependent effect”, the Activity (HeLa [22]) was 20.38% and the Activity (HeLa [23]) was 17.98%. The IC50 (HeLa [24]) was 2210 nM, the Activity (HeLa [25]) was 2.1% and the inhibition (Mus musculus [26]) was “Active”. For the same compound, the IC50 [2] was 3.41 nM, the Activity (HeLa [27]) was 20.38% and the Activity (HeLa [28]) was 75.03%. The Activity (HeLa [29]) was 59.18%, the Activity (HeLa [30]) was “Active” and the Activity (HeLa [31]) was “Dose-dependent effect”. The Activity (HeLa [32]) was “Active”, the Activity (HeLa [33]) was 1.84% and the IC50 (MCF7) was 16300 nM. For the same compound, the inhibition (Mus musculus [34]) was “Active”, the inhibition (HeLa [35]) was “Active” and the Activity (HeLa [36]) was 15.43%.

In the case of `O=[N+]([O-])c1cccc(S(=O)(=O)N2CCN(c3nc(NCCN4CCOCC4)nc(N4CCOCC4)n3)CC2)c1`, the IC50 [1] is reported as 76.8 nM and the IC50 [2] is reported as 38.9 nM.

`O=S(=O)(c1ccc(F)cc1)N1CCN(c2nc(NCCN3CCOCC3)nc(N3CCOCC3)n2)CC1` showed an IC50 [1] of 35.3 nM and an IC50 [2] of 88 nM.

For `COc1ccccc1S(=O)(=O)N1CCN(c2nc(NCCN3CCOCC3)nc(N3CCOCC3)n2)CC1`, the IC50 [1] was 25.5 nM and the IC50 [2] was 39.7 nM.

With `O=S(=O)(c1ccc(Cl)cc1)N1CCN(c2nc(NCCN3CCOCC3)nc(N3CCOCC3)n2)CC1` the IC50 [1] was 28.2 nM and the IC50 [2] was 30.9 nM.

`COc1ccc(S(=O)(=O)N2CCN(c3nc(NCCN4CCOCC4)nc(N4CCOCC4)n3)CC2)cc1` showed an IC50 [1] of 20.8 nM and an IC50 [2] of 8.9 nM.

`O=S(=O)(c1ccccc1Cl)N1CCN(c2nc(NCCN3CCOCC3)nc(N3CCOCC3)n2)CC1` showed an IC50 [1] of 35.3 nM and an IC50 [2] of 55.4 nM.
